{"source": "patent US20180250314A1", "about": "“Skin Treatment System” (priority 2017, published 2018)", "tested_on": "keratosis pilaris", "assay": "In-vivo study, patients with keratosis pilaris", "conditions": "topical use; arms, buttocks, thighs, and cheeks", "from_the_text": "During use of the skin treatment formulations, the glycolic acid is configured to react with the top layer of skin, i.e., the stratum corneum, by breaking it down while dissolving sebum and other substances that bind dead tissue together. The dead skin cells produced when exposed to the glycolic acid may then be sloughed off with gentle exfoliation, which clears blocked pores and opens comedones to reveal smoother, brighter, younger-looking skin.", "data": [{"smiles": "O=C(O)CO", "note": "[glycolic acid]", "values": [{"measurement": "skin appearance in keratosis pilaris patients", "value": "clearer and smoother skin"}]}]}
